The target in one test is Cholinesterase (Equus caballus, UniProt P81908). The experiment in a line: Inhibition of equine serum BuChE pre-incubated for 5 mins before butyrylthiocholine iodide substrate addition and measured after 15 mins by Ellman's method.
Test [1] deals with T1, Acetylcholinesterase (Electrophorus electricus, UniProt O42275). Kind of test: Inhibition of electric eel AChE pre-incubated for 5 mins before acetylthiocholine iodide substrate addition and measured after 15 mins by Ellman's method.
The test system of test [2] is PC-12. The experiment in a line: Neuroprotective activity in rat PC12 cells assessed as protection against H2O2-induced cytotoxicity at 10 uM pre-incubated for 3 hrs before H2O2 addition and measured after 12 hrs by MTT assay. The format is functional, cell-based.
The test system of test [3] is PC-12. Kind of test: Neuroprotective activity in rat PC12 cells assessed as protection against H2O2-induced cytotoxicity at 1 uM pre-incubated for 3 hrs before H2O2 addition and measured after 12 hrs by MTT assay. The format is functional, cell-based.
In test [4] the test system is PC-12. Kind of test: Neuroprotective activity in rat PC12 cells assessed as protection against H2O2-induced cytotoxicity at 100 uM pre-incubated for 3 hrs before H2O2 addition and measured after 12 hrs by MTT assay. The format is functional, cell-based.
Test [5] addresses Beta-secretase 1 (Homo sapiens) (UniProt P56817). Kind of test: Inhibition of recombinant human BACE1 (1 to 460 residues) expressed in baculovirus-infected insect cells at 50 uM using Rh-EVNLDAEFK-quencher as substrate measured after 90 mins by FRET assay relative to control.
Test [6] shares this target. The experiment in a line: Inhibition of recombinant human BACE1 (1 to 460 residues) expressed in baculovirus-infected insect cells at 10 uM using Rh-EVNLDAEFK-quencher as substrate measured after 90 mins by FRET assay relative to control.
Test [7] has as its target T1, Acetylcholinesterase. Kind of test: Mixed type inhibition of electric eel AChE pre-incubated for 5 mins before acetylthiocholine iodide substrate addition and measured after 15 mins by modified Ellman's method baaed Lineweaver-Burk plot analysis.

Active and inactive are the calls of the source. No cut-off for these calls is given here.

These results are taken from ChEMBL document CHEMBL4340570, “Design, synthesis, and biological evaluation of novel 4-oxobenzo[d]1,2,3-triazin-benzylpyridinum derivatives as potent anti-Alzheimer agents” (Bioorg Med Chem, 2019).

Cholinesterase, sequence (P81908 whole entry): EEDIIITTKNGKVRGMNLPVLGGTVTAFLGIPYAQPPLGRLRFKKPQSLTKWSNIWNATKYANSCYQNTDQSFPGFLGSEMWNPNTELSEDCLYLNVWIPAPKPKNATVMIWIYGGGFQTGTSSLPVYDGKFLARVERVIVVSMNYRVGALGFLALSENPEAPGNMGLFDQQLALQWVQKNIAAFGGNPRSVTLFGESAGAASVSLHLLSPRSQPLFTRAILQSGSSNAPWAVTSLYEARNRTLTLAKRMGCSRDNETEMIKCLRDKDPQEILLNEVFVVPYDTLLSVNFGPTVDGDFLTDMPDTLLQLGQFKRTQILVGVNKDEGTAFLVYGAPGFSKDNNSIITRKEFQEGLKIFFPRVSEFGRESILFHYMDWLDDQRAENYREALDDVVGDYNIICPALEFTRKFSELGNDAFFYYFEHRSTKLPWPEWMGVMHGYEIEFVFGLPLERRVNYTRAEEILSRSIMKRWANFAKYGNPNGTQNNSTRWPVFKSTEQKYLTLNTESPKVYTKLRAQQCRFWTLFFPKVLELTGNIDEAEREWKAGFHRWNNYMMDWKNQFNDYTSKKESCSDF
T1 sequence (O42275 whole entry): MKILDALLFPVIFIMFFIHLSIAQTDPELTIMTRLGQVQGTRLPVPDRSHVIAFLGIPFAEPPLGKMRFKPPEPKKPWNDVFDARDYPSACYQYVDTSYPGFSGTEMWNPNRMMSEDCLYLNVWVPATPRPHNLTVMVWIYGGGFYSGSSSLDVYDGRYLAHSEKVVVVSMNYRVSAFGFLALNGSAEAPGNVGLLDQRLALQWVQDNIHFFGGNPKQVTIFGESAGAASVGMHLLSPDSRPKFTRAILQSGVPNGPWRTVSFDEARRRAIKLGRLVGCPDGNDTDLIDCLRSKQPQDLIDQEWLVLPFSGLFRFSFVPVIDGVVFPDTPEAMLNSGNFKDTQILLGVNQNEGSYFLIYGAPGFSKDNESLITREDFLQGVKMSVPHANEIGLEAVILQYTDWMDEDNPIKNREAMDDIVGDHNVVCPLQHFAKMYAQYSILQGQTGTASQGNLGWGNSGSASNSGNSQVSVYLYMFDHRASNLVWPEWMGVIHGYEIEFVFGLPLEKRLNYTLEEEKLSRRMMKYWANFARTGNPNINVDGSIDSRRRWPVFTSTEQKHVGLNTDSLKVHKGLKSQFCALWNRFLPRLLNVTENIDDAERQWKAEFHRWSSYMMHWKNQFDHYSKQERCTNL
Beta-secretase 1 (Homo sapiens), sequence (P56817 whole entry, the tested form may be a part): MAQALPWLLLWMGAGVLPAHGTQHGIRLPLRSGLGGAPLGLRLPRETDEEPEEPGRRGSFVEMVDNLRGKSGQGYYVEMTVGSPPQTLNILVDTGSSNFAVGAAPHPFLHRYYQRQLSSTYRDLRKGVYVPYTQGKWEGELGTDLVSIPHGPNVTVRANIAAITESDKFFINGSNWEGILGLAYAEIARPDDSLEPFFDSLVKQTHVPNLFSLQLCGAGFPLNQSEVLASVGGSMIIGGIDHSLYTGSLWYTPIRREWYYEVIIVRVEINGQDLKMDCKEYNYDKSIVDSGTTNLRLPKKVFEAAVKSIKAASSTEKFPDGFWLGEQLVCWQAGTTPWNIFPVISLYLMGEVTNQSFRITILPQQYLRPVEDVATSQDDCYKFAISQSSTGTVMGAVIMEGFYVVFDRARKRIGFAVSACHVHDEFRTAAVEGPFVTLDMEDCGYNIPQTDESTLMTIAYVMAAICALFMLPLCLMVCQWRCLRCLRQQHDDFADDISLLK

With `O=c1c2ccccc2nnn1Cc1ccc[n+](Cc2c(Cl)cccc2Cl)c1`, the values for the IC50 at Cholinesterase and at Acetylcholinesterase [1] were 21.6 µM and 0.73 µM, respectively.

As for `O=c1c2ccccc2nnn1Cc1cc[n+](Cc2ccc(Br)cc2)cc1`, the IC50 against Cholinesterase came out at 51.8 µM; against Acetylcholinesterase [1], 1.18 µM.

Turning to `O=c1c2ccccc2nnn1Cc1ccc[n+](Cc2cccc(F)c2)c1`, the IC50 against Cholinesterase came out at 27.8 µM; against Acetylcholinesterase [1] it was 0.17 µM.

For the compound `O=c1c2ccccc2nnn1Cc1ccc[n+](Cc2ccccc2)c1`, the IC50 against Cholinesterase came to 31.2 µM; against Acetylcholinesterase [1], 0.17 µM.

As for `O=c1c(O)c(-c2ccc(O)c(O)c2)oc2cc(O)cc(O)c12`, the result with PC-12 [2] was Active.

Turning to `O=c1c2ccccc2nnn1Cc1ccc[n+](Cc2ccccc2F)c1`, the half-maximal inhibitory concentration (IC50) against Cholinesterase was determined as 23.9 µM; against Acetylcholinesterase [1] it was 0.29 µM.

With `O=c1c2ccccc2nnn1Cc1ccc[n+](Cc2ccc([N+](=O)[O-])cc2)c1`, the IC50 against Cholinesterase is 17.2 µM; on Acetylcholinesterase [1] it was 0.16 µM.

As to `O=c1c2ccccc2nnn1Cc1ccc[n+](Cc2ccc(Br)cc2)c1`, the IC50 against Cholinesterase was found to be 5.8 µM; on Acetylcholinesterase [1], 0.84 µM.

With `O=c1c2ccccc2nnn1Cc1cc[n+](Cc2ccccc2[N+](=O)[O-])cc1`, the IC50 on Cholinesterase worked out at 18.2 µM; at Acetylcholinesterase [1], 1.3 µM.

In the case of `O=c1c2ccccc2nnn1Cc1ccc[n+](Cc2cccc(Br)c2)c1`, the IC50 against Cholinesterase is 14.7 µM; against Acetylcholinesterase [1], 0.3 µM.

As for `O=c1c2ccccc2nnn1Cc1ccc[n+](Cc2ccccc2Br)c1`, the result with PC-12 [3], with PC-12 [4] and with PC-12 [2] was Active. Also, the IC50 at Cholinesterase was found to be 16.8 µM; against Acetylcholinesterase [1], 0.15 µM.

On to `O=c1c2ccccc2nnn1Cc1ccc[n+](Cc2ccccc2[N+](=O)[O-])c1`, for which the inhibition in test [5] came to 61.2%; in test [6], 37%. Also, the values for the IC50 against Cholinesterase and on Acetylcholinesterase [1] were 17.5 µM and 0.1 µM, respectively. Besides, in the test on PC-12 [4], the result was Active. This compound also gave a Ki at Acetylcholinesterase [7] of 0.017 µM.

Consider `O=c1c2ccccc2nnn1Cc1cc[n+](Cc2ccccc2)cc1`, for which the half-inhibitory concentration (IC50) turned out to be 75.2 µM against Cholinesterase and 1.34 µM against Acetylcholinesterase [1].

In the case of `Cc1ccccc1C[n+]1cccc(Cn2nnc3ccccc3c2=O)c1`, the IC50 on Cholinesterase is 13.7 µM; against Acetylcholinesterase [1] it was 0.2 µM.

For the compound `O=c1c2ccccc2nnn1Cc1ccc[n+](Cc2ccc(F)cc2)c1`, the result with PC-12 [3] was Active. For the same compound, the IC50 at Cholinesterase came to 23.8 µM; at Acetylcholinesterase [1], 0.15 µM.

As for `O=c1c2ccccc2nnn1Cc1cc[n+](Cc2ccc(F)cc2)cc1`, the IC50 against Cholinesterase turned out to be 70.7 µM; against Acetylcholinesterase [1], 1.64 µM.

Regarding `O=c1c2ccccc2nnn1Cc1cc[n+](Cc2ccccc2F)cc1`, the figures for the IC50 against Cholinesterase and against Acetylcholinesterase [1] were 64.6 µM and 1.68 µM, respectively.

`O=c1c2ccccc2nnn1Cc1cc[n+](Cc2ccccc2Cl)cc1`: the IC50 against Cholinesterase is 55 µM; against Acetylcholinesterase [1], 1.37 µM.
